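Dose response: 5 concentrations. Exposure: 48 h. Format: 96-well plates. Endpoint: linear interpolation; highest concentration if not reached. TGI denotes the concentration required for complete inhibition of growth.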
Experiments:
Assay in all cases: NCI anticancer screen, dose series, 48 h
RPMI-8226 leukemia = tested on: RPMI-8226 leukemia
NCI/ADR-RES ovarian = tested on: NCI/ADR-RES ovarian
SNB-75 CNS = tested on: SNB-75 CNS
NCI-H23 lung = tested on: NCI-H23 lung
SNB-19 CNS = tested on: SNB-19 CNS
MALME-3M melanoma = tested on: MALME-3M melanoma
SW-620 colon = tested on: SW-620 colon
OVCAR-4 ovarian = tested on: OVCAR-4 ovarian
OVCAR-5 ovarian = tested on: OVCAR-5 ovarian
NCI-H460 lung = tested on: NCI-H460 lung
HOP-62 NSCLC = tested on: HOP-62 NSCLC
SK-MEL-5 melanoma = tested on: SK-MEL-5 melanoma
SK-MEL-28 melanoma = tested on: SK-MEL-28 melanoma
MOLT-4 leukemia = tested on: MOLT-4 leukemia
SK-MEL-2 melanoma = tested on: SK-MEL-2 melanoma
HCC-2998 colon = tested on: HCC-2998 colon
SN12C renal = tested on: SN12C renal
IGROV1 ovarian = tested on: IGROV1 ovarian
SF-539 CNS = tested on: SF-539 CNS
UACC-62 melanoma = tested on: UACC-62 melanoma

`O=C(c1ccco1)C1CC(c2c(O)ccc3ccccc23)=NN1` (stereo not given) showed a TGI (RPMI-8226 leukemia) of 86.6 µM, a TGI (NCI/ADR-RES ovarian) of 51.1 µM and a TGI (SNB-75 CNS) of 33.6 µM. The TGI (NCI-H23 lung) was 37.7 µM, the TGI (SNB-19 CNS) was 47.8 µM and the TGI (MALME-3M melanoma) was 37.9 µM. The TGI (SW-620 colon) was 31 µM, the TGI (OVCAR-4 ovarian) was > 100 µM and the TGI (OVCAR-5 ovarian) was 36.3 µM. It also gave a TGI (NCI-H460 lung) of 19.9 µM, a TGI (HOP-62 NSCLC) of 27.3 µM and a TGI (SK-MEL-5 melanoma) of 29.7 µM. For the same compound, the TGI (SK-MEL-28 melanoma) was 47.8 µM, the TGI (MOLT-4 leukemia) was 42.7 µM and the TGI (SK-MEL-2 melanoma) was 39.2 µM. The TGI (HCC-2998 colon) was 25.7 µM, the TGI (SN12C renal) was 46 µM and the TGI (IGROV1 ovarian) was 42 µM. The TGI (SF-539 CNS) was 26.7 µM and the TGI (UACC-62 melanoma) was 26 µM.
`CC1(C)OC2CC(=O)OCC23C1CC(=O)C1(C)C3CCC2(C)C(c3ccoc3)OC(=O)C3OC321` (stereo not given) was tested, and the TGI (RPMI-8226 leukemia) was > 125 µM, the TGI (NCI/ADR-RES ovarian) was > 125 µM and the TGI (SNB-75 CNS) was > 109 µM. The TGI (NCI-H23 lung) was > 125 µM, the TGI (SNB-19 CNS) was > 125 µM and the TGI (MALME-3M melanoma) was > 125 µM. For the same compound, the TGI (SW-620 colon) was > 125 µM, the TGI (OVCAR-4 ovarian) was > 125 µM and the TGI (OVCAR-5 ovarian) was > 125 µM. The TGI (NCI-H460 lung) was > 125 µM, the TGI (HOP-62 NSCLC) was > 125 µM and the TGI (SK-MEL-5 melanoma) was > 125 µM. The TGI (SK-MEL-28 melanoma) was > 125 µM, the TGI (MOLT-4 leukemia) was > 125 µM and the TGI (SK-MEL-2 melanoma) was > 125 µM. For the same compound, the TGI (HCC-2998 colon) was > 125 µM, the TGI (SN12C renal) was > 39.5 µM and the TGI (IGROV1 ovarian) was > 125 µM. The TGI (SF-539 CNS) was > 125 µM and the TGI (UACC-62 melanoma) was > 125 µM.

— PubChem BioAssay (NCI)
